Results: paper PMC8140528 (Chemistry & biodiversity, 2021)
Where two headings read alike, the source gives them in different places.

How the values were obtained:
[1] = tested on: human T-lymphocyte cells (CEM); assay: Antiproliferative effect on CEM cells; format: cell-based; settings: read-out: IC50 CEM
[2] = tested on: human cervix carcinoma cells (HeLa); assay: Antiproliferative effect on HeLa cells; format: cell-based; settings: read-out: IC50 HeLa
[3] = tested on: L1210, CEM and HeLa cells; assay: Cytotoxicity screening over L1210, CEM and HeLa; format: cell-based; settings: read-out: IC50 (range over the cell lines tested), L1210, CEM and HeLa together
[4] = tested on: murine leukemia cells (L1210); assay: Antiproliferative effect on L1210 cells; format: cell-based
[5] = tested on: CCRF-CEM (Acute Lymphoblastic leukemia); assay: Differential nuclear staining; format: cell-based; settings: Homo sapiens, CCRF-CEM, read-out: CC50 (death of 50% of the cells)
[6] = Differential nuclear staining; format: cell-based; settings: human
[7] = Differential nuclear staining; format: cell-based; settings: human; remark: listed apart in the source
[8] = tested on: Jurkat (Acute T Cell Leukemia); assay: Differential nuclear staining; format: cell-based; settings: Homo sapiens, Jurkat
[9] = Differential nuclear staining; format: cell-based; settings: human, Hs27 non-cancerous fibroblast cells
Jurkat cells [10] = assay: Cell cycle analysis; format: cell-based, human
Jurkat cells [11] = assay: Annexin V-FITC/PI assay; format: cell-based, human; settings: 7g at CC50 (2.36 μM) and CC100 (4.72 μM), vs vehicle control
[12] = tested on: caspase-3 in Jurkat cells; assay: Caspase-3 activation assay; format: cell-based, human; settings: CC50 (2.36 μM) and CC100 (4.72 μM), 7 h, vs controls
Jurkat cells [13] = assay: Mitochondrial depolarization assay; format: cell-based, human; settings: JC-1, flow cytometry, 5 h
[14] = Mus musculus, L1210, read-out: IC50 L1210
[15] = read-out: CC50 (death of 50% of the cells)
[16] = read-out: CC50 (range for compounds 7g and 8b)
[17] = read-out: IC50 L1210, L1210 cells, mean ± SEM (n=3)
[18] = cells treated with the CC50, 48 h

Compound	IC50 ([1]; Homo sapiens, CCRF-CEM)	IC50 ([2]; Homo sapiens, HeLa)	IC50 [3]	IC50 [4, 14]	CC50 [5]	selectivity ratio [6]	selectivity ratio [7]	CC50 [8, 15]	CC50 [8, 16]	CC50 at 72 h [9]	IC50 [4, 17]	other results
c1ccc([C@H]2CN3CCSC3=N2)cc1 [Levamisole, reference compound]	> 250000 nM	> 250000 nM										
COc1ccc(Cc2nn3c(C=O)c(-c4ccc(Cl)cc4)nc3s2)cc1 [Compound 8b, 6-(4-chlorophenyl)-2-(4-methoxybenzyl)imidazo[2,1-b][1,3,4]thiadiazole-5-carbaldehyde]	940 ± 120 nM	1300 ± 200 nM	940 to 1300 nM	1100 ± 200 nM	3.62 ± 0.26 µM	0.65	1.43	1650 ± 190 nM	1650 to 4730 nM	2.36 ± 0.03 µM		
N[C@@H](Cc1ccc(N(CCCl)CCCl)cc1)C(=O)O [Melphalan, reference compound]	1400 ± 400 nM										2130 ± 20 nM	
COc1ccc(Cc2nn3c(SC#N)c(-c4cc5ccccc5oc4=O)nc3s2)cc1 [Compound 7g, 2-(4-methoxybenzyl)-6-(2-oxo-2H-chromen-3-yl)imidazo[2,1-b][1,3,4]thiadiazol-5-yl thiocyanate]	790 ± 350 nM	780 ± 130 nM	780 to 1600 nM	1600 ± 200 nM	4.73 ± 0.22 µM	6.65	13.3	2360 ± 100 nM	1650 to 4730 nM	31.4 ± 0.74 µM		sub-G0/G1 subpopulation (DNA fragmentation) (Jurkat cells [10]; 7g at CC50 (2.36 μM) and CC100 (4.72 μM), 48 h): increase in sub-G0/G1 subpopulation; cell population in G2-M phase (Jurkat cells [10]; 48 h): increase of the cell population in the G2-M phase; cell population in S phase (Jurkat cells [10]; [18]): increase of cell population in the S phase; cell subpopulation in G0-G1 phase (Jurkat cells [10]; [18]): decrease of cell subpopulation in the G0-G1 phase; phosphatidylserine externalization (Jurkat cells [11]): inducing phosphatidylserine externalization in a dose-response manner; caspase-3 activation [12]: induced statistically significant activation of caspase-3; mitochondrial membrane depolarization (Jurkat cells [13]): not causing mitochondrial membrane depolarization
COc1ccc(Cc2nn3cc(-c4cc5ccccc5oc4=O)nc3s2)cc1 [Compound 5h]											90000 ± 24000 nM	IC50 ([1]; CEM cells, mean ± SEM (n=3)): 5000 ± 3300 nM; IC50 ([2]; HeLa cells, mean ± SEM (n=3)): 70000 ± 4000 nM
